In the test the target is HPK1. Kind of test: HPK1 Lantha Binding Assay ("Lanth"). As to the method:
HPK1 Lantha Binding Assay (“Lanth”)
The compounds to be tested were diluted by preparing 12.5 uL/well of 5 mM compound (100×) in columns 2 and 13 and 10 ul/well of DMSO in columns 3-12, 14-23, and wells A1-H1 and I24-P24 of the compound plate using a Bravo liquid handling platform. For the reference compound, the top concentration was 1 mM. To the plate was added 10 ul 2 mM staurosporine in wells J1-P1 and A24-H24. A 11 point 5-fold compound serial dilution was performed using the Bravo liquid handling platform. From the plate were transferred 2.5 ul of the solutions from column 2 and column 13 to the 10 ul of DMSO in columns 3 and 14 & so on. The compound plate was centrifuged at 2500 rpm for 1 min. From the compound plate was transferred 80 nl of the compounds into an assay plate using the Echo liquid handler system. One compound plate makes two assay plates. Each assay plate is sealed and stored in an N2 cabinet.
The following assay concentrations and times were used: 2 nM HPK1, 2 nM Eu-Anti-GST Ab, and 15 nM Tracer222, with 60 min incubation time.
III. HPK Lantha Binding Assay:
For the binding assay, 4 ul 2×HPK1 and Eu-anti-GST antibody were added to each well of the assay plate using a Multidrop reagent dispenser. The solutions were incubated in a 23 C incubator for 1 h. To each well of the assay plate was added 4 ul 2× Tracer-222 using a Multidrop reagent dispenser. The solutions were again incubated in a 23 C incubator for 1 h. The results of the assay were read using an Envision plate reader with the following parameters: TR_FRET, 340ex/615 and 665em; 100 usec Delay; and 200 usec integration.
Compound Ki was analyzed using Morrison ki fit model in XL-fit • a. fit=(1−((((E+x)+(Ki*(1+(S/Kd))))−(((((E+x)+(Ki*(1+(S/Kd))))[…])−((4*E)*x))^0.5))/(2*E))) • res=(y-fit) • b. Parameters: • E=enzyme concentration • S=Tracer222 concentration, Kd=Tracer222 Kd • All measurements reported using the same units (uM)
Exemplary compounds of Formula I or Ia were tested in the binding assays. The Ki data in Table B1-1 are based on the “Lanth” assay.

Where [1] appears, read: Table B1-1, read-out: HPK1 Ki (μM) (Lanth).

Read-outs that look alike come from different tables or passages of the source.

With `Cc1cc2c(cc1-c1cc3cc(NC(=O)[C@H]4C[C@@H]4C#N)ncc3c(N)n1)C(O)C(=O)N2` (relative stereo) [Compound 160, trans-N-[8-amino-6-(3-hydroxy-6-methyl-2-oxo-indolin-5-yl)-2,7-naphthyridin-3-yl]-2-cyano-cyclopropanecarboxamide], under setting [1], the Ki was 0.0012 µM.
On the same count and under the same terms, then `CCc1c(-c2cnccc2C)nc(N)c2cnc(NC(=O)[C@@H]3C[C@H]3CC#N)cc12` (stereo in doubt) [Compound 271, (1R,2S)—N-[8-amino-5-ethyl-6-(4-methylpyridin-3-yl)-2,7-naphthyridin-3-yl]-2-(cyanomethyl)cyclopropane-1-carboxamide], with 0.000768 µM.
Still for that read-out and setting: for `Cn1cc([C@H]2C[C@@H]2C(=O)Nc2cc3cc(-c4ccccc4Cl)nc(N)c3cn2)cn1` (stereo in doubt) [Compound 304, (1S,2S)—N-[8-amino-6-(2-chlorophenyl)-2,7-naphthyridin-3-yl]-2-(1-methyl-1H-pyrazol-4-yl)cyclopropane-1-carboxamide] the value was 0.00302 µM.
On the same count and under the same terms, then `Cn1cc([C@H]2C[C@@H]2C(=O)Nc2cc3cc(-c4c(F)cccc4F)nc(N)c3cn2)cn1` (stereo in doubt) [Compound 306, (1S,2S)—N-[8-amino-6-(2,6-difluorophenyl)-2,7-naphthyridin-3-yl]-2-(1-methyl-1H-pyrazol-4-yl)cyclopropane-1-carboxamide], with 0.00325 µM.
As to `Cn1cc([C@@H]2C[C@H]2C(=O)Nc2cc3cc(-c4c(F)cccc4F)nc(N)c3cn2)cn1` (stereo in doubt) [Compound 307, (1R,2R)—N-[8-amino-6-(2,6-difluorophenyl)-2,7-naphthyridin-3-yl]-2-(1-methyl-1H-pyrazol-4-yl)cyclopropane-1-carboxamide], under setting [1], the Ki came to 0.000112 µM.
With `Cc1cc(C2=N[C@@H](C(C)C)CO2)ncc1-c1cc2cc(NC(=O)[C@H]3C[C@@H]3c3cnn(C)c3)ncc2c(N)n1` (stereo in doubt) [Compound 384, trans-N-(8-amino-6-(6-((S)-4-isopropyl-4,5-dihydrooxazol-2-yl)-4-methylpyridin-3-yl)-2,7-naphthyridin-3-yl)-2-(1-methyl-1H-pyrazol-4-yl)cyclopropane-1-carboxamide], where the note is “Table B1-2, read-out: HPK1 Ki, L = Lanth”, the Ki was 0.0018 µM.
In the case of `Cc1ccncc1-c1cc2cc(NC(=O)[C@@H]3C[C@@H]3F)ncc2c(N)n1` [Compound 6, (1S,2S)—N-(8-amino-6-(4-methylpyridin-3-yl)-2,7-naphthyridin-3-yl)-2-fluorocyclopropanecarboxamide], the Ki under setting [1] is 0.000793 µM.
On the same count and under the same terms, then `Cn1cc(-c2cc3cc(NC(=O)[C@@H]4C[C@@H]4F)ncc3c(N)n2)cn1` [Compound 7, (1S,2S)—N-(8-amino-6-(1-methyl-1H-pyrazol-4-yl)-2,7-naphthyridin-3-yl)-2-fluorocyclopropanecarboxamide], with 0.00289 µM; and `CNC(=O)Nc1cc2cc(-c3cnn(C)c3)nc(N)c2cn1` [Compound 9, 1-(8-amino-6-(1-methyl-1H-pyrazol-4-yl)-2,7-naphthyridin-3-yl)-3-methylurea], with 0.00716 µM.
`COc1ccncc1-c1cc2cc(NC(=O)[C@@H]3C[C@@H]3F)ncc2c(N)n1` [Compound 10, (1S,2S)—N-(8-amino-6-(4-methoxypyridin-3-yl)-2,7-naphthyridin-3-yl)-2-fluorocyclopropanecarboxamide]: the Ki under setting [1] stood at 0.00173 µM.
Still for that read-out and setting: for `Cc1ccncc1-c1cc2cc(NC(=O)C3CC3(F)F)ncc2c(N)n1` (stereo not drawn) [Compound 11, N-(8-amino-6-(4-methylpyridin-3-yl)-2,7-naphthyridin-3-yl)-2,2-difluorocyclopropanecarboxamide] the value was 0.00365 µM; for `Cc1ncncc1-c1cc2cc(NC(=O)[C@@H]3C[C@@H]3F)ncc2c(N)n1` [Compound 12, (1S,2S)—N-(8-amino-6-(4-methylpyrimidin-5-yl)-2,7-naphthyridin-3-yl)-2-fluorocyclopropanecarboxamide], 0.0493 µM; for `CCc1ncncc1-c1cc2cc(NC(=O)[C@@H]3C[C@@H]3F)ncc2c(N)n1` [Compound 13, (1S,2S)—N-(8-amino-6-(4-ethylpyrimidin-5-yl)-2,7-naphthyridin-3-yl)-2-fluorocyclopropanecarboxamide], 0.0156 µM.
Same read-out and setting: then `Nc1nc(-c2cnccc2C(F)F)cc2cc(NC(=O)[C@@H]3C[C@@H]3F)ncc12` [Compound 14, (1S,2S)—N-(8-amino-6-(4-(difluoromethyl)pyridin-3-yl)-2,7-naphthyridin-3-yl)-2-fluorocyclopropanecarboxamide], with 0.00946 µM.
In the case of `N#Cc1ccncc1-c1cc2cc(NC(=O)[C@@H]3C[C@@H]3F)ncc2c(N)n1` [Compound 15, (1S,2S)—N-(8-amino-6-(4-cyanopyridin-3-yl)-2,7-naphthyridin-3-yl)-2-fluorocyclopropanecarboxamide], the Ki under setting [1] is 0.0226 µM.
Turning to `Cc1c(F)cncc1-c1cc2cc(NC(=O)[C@@H]3C[C@@H]3F)ncc2c(N)n1` [Compound 17, (1S,2S)—N-(8-amino-6-(5-fluoro-4-methylpyridin-3-yl)-2,7-naphthyridin-3-yl)-2-fluorocyclopropanecarboxamide], the Ki under setting [1] was 0.0161 µM.
The same measure, in the same setting: then `Cn1nccc1-c1cc2cc(NC(=O)[C@@H]3C[C@@H]3F)ncc2c(N)n1` [Compound 18, (1S,2S)—N-(8-amino-6-(1-methyl-1H-pyrazol-5-yl)-2,7-naphthyridin-3-yl)-2-fluorocyclopropanecarboxamide], with 0.0475 µM; and `CCc1ccncc1-c1cc2cc(NC(=O)C3CCC3)ncc2c(N)n1` [Compound 20, N-[8-amino-6-(4-ethyl-3-pyridyl)-2,7-naphthyridin-3-yl]cyclobutanecarboxamide], with 0.00322 µM; and `Cc1cc(CO)ncc1-c1cc2cc(NC(=O)C3CC3)ncc2c(N)n1` [Compound 25, N-(8-amino-6-(6-(hydroxymethyl)-4-methylpyridin-3-yl)-2,7-naphthyridin-3-yl)cyclopropanecarboxamide], with 0.00154 µM.
Same read-out and setting: for `CCc1ccncc1-c1cc2cc(NC(=O)C3CC3)ncc2c(N)n1` [Compound 26, N-(8-amino-6-(4-ethylpyridin-3-yl)-2,7-naphthyridin-3-yl)cyclopropanecarboxamide] the value was 0.00021 µM; for `Cn1cc(-c2cc3cc(NC(=O)C4CC4)ncc3c(N)n2)cn1` [Compound 27, N-[8-amino-6-(1-methylpyrazol-4-yl)-2,7-naphthyridin-3-yl]cyclopropanecarboxamide], 0.00108 µM.
Still for that read-out and setting: for `CCc1ccncc1-c1cc2cc(NC(=O)CCC#N)ncc2c(N)n1` [Compound 28, N-[8-amino-6-(4-ethyl-3-pyridyl)-2,7-naphthyridin-3-yl]-3-cyano-propanamide] the value was 0.0149 µM; for `CCc1ccncc1-c1cc2cc(NC(=O)CCC(N)=O)ncc2c(N)n1` [Compound 29, N′-[8-amino-6-(4-ethyl-3-pyridyl)-2,7-naphthyridin-3-yl]butanediamide], 0.014 µM; for `CCc1ccncc1-c1cc2cc(NC(=O)NCc3cncs3)ncc2c(N)n1` [Compound 30, 1-[8-amino-6-(4-ethyl-3-pyridyl)-2,7-naphthyridin-3-yl]-3-(thiazol-5-ylmethyl)urea], 0.00175 µM.
For `CCc1ccncc1-c1cc2cc(NC(=O)NC(C)C)ncc2c(N)n1` [Compound 31, 1-[8-amino-6-(4-ethyl-3-pyridyl)-2,7-naphthyridin-3-yl]-3-isopropyl-urea], the Ki under setting [1] stood at 0.0039 µM.
The same measure, in the same setting: for `CCc1ccncc1-c1cc2cc(NC(=O)CC#N)ncc2c(N)n1` [Compound 32, N-[8-amino-6-(4-ethyl-3-pyridyl)-2,7-naphthyridin-3-yl]-2-cyano-acetamide] the value was 0.0264 µM; for `CCc1ccncc1-c1cc2cc(NC(=O)N(C)C)ncc2c(N)n1` [Compound 33, 3-[8-amino-6-(4-ethyl-3-pyridyl)-2,7-naphthyridin-3-yl]-1,1-dimethyl-urea], 0.0341 µM; for `Cc1ccncc1-c1cc2cc(NC(=O)C(C)(C)C#N)ncc2c(N)n1` [Compound 35, N-(8-amino-6-(4-methylpyridin-3-yl)-2,7-naphthyridin-3-yl)-2-cyano-2-methylpropanamide], 5.54 µM.
For `COC(C)(C)C(=O)Nc1cc2cc(-c3cnccc3C)nc(N)c2cn1` [Compound 36, N-(8-amino-6-(4-methylpyridin-3-yl)-2,7-naphthyridin-3-yl)-2-methoxy-2-methylpropanamide], the Ki under setting [1] was found to be 4.08 µM.
In the case of `Cc1ccncc1-c1cc2cc(NC(=O)C(C)(C)O)ncc2c(N)n1` [Compound 39, N-(8-amino-6-(4-methylpyridin-3-yl)-2,7-naphthyridin-3-yl)-2-hydroxy-2-methylpropanamide], under setting [1], the Ki is 2.03 µM.

Values taken from patent US11034692B1 (Genentech, Inc., priority 2017, dated 2021).
